Assay results published in paper PMC8635623, “A click chemistry approach to pleuromutilin derivatives, evaluation of anti-MRSA activity and elucidation of binding mode by surface plasmon resonance and molecular docking” (Journal of Enzyme Inhibition and Medicinal Chemistry, 2021).
pKd: −log10 of the molar value. In brackets after ≈: the same amount, converted by molar mass.

What was measured:
[1] = target: 50S ribosome; test: SPR binding studies; design: species or system S. aureus; settings: 4 °C; for pKd: PBST pH 7.4, KD = Kd/Ka, read-out: KD (equilibrium dissociation constant); for Ka (association rate constant) / Kd (dissociation rate constant): PBST pH 7.4, compound immobilised, 50S ribosome 200-3200 nM
Protocol: In order to gain some insight into the binding mode of the potent inhibitors, SPR experiments were performed. […] The response unit (RU) of surface resonance was compared to determine the different binding affinities between each compound and the 50S ribosome. The association rate constants (Ka) and dissociation rate constant (Kd) represent the rate of association and dissociation in the binding reaction, respectively. The equilibrium dissociation constant (KD) indicated the degree of dissociation of compounds and the 50S ribosome in the equilibrium state. Their binding curves during the experiment were shown in Figure 3, as well as the concentration gradient curves were shown in Figure SI 27–34.
SPR biosensing experiments were performed at 4 °C using the bScreen LB 991 Label-free Microarray System (Berthold Technologies, Germany) and the photo-cross-linker sensor chip. The BIODOT™ AD-1520 Array Printer (BIODOT Inc., USA) was used for printing samples and control on the chip surface. A UV Spectroirradiator 1020 (Amersham Life Science, USA) was used for the photo-cross-linking reaction quickly after the array print.
As described in the reference[32–34] with minor modifications, the ribosome of S. aureus were extracted and purified to obtain 50S ribosome. MRSA (ATCC 43300) was incubated overnight at 37 °C. The bacteria solution was inoculated into a new culture solution, and cells were collected at an OD600 = 1.5. The bacterial culture was centrifuged 3 times at 3,500 rpm using a TX-400 rotor at 4 °C for 30 min, and then the supernatant was discarded. Cells were washed twice with 10 mM Tris-HCl (pH = 7.5), and suspend the precipitate with buffer A (20 mM HEPES-HCl pH = 7.5, 100 mM NH4Cl, 21 mM Mg(OAc)2, 1 mM EDTA, 1 mM DTT). Cells were lysed by repeated (>3×) snap-freezing and thawing, then ultrasonic disintegration was performed. To remove cell debris, the crushed product was centrifuged at 20,000 rpm for 90 min at 4 °C.The lysate layered on 15 ml of a sucrose cushion (10 mM HEPES-HCl pH = 7.5, 500 mM KCl, 25 mM Mg(OAc)2, 1.1 M sucrose, 0.5 mM EDTA, 1 mM DTT) and centrifuged in the ultracentrifuge(Optima^TM TL 100) at 45,000 rpm using a type70Ti rotor at 4 °C for 15 h to obtain ribosomal particles. Pellet was resuspended in 3 ml of buffer E (10 mM HEPES-HCl pH = 7.5, 100 mM KCl, 1 mM Mg(OAc)2, 0.5 mM EDTA, 1 mM DTT), then layered on 9 ml of 7–30% sucrose gradient and ultracentrifuged at 17,100 rpm using a typeSW40Ti rotor at 4 °C for 15 h. The gradient was analysed on the AKTA explorer system. The fractions corresponding to 50S ribosome were collected and PEG 20000 was added to a final concentration of 4.5% w/v. Ribosomes were pelleted by centrifugation at 20,000 rpm for 12 min, the pellet was gently dissolved in 200 µL of storage buffer (10 mM HEPES-HCl pH = 7.5, 15 mM KCl, 60 mM NH4Cl, 10 mM Mg(OAc)2, 1 mM DTT) and then flash-frozen for storage at −80 °C.
Dilute these compounds to a concentration of 10 mM with DMSO as the stationary phase printing working solution. After that, the printing working solution was printed on the sensor chip by the array printer, and each sample was printed four times repeatedly. Four groups of positive control dots (12 rapamycin dots, 3 in each corner) were printed on the four corners of the sensor chip respectively. The sample dots were dried in vacuum, and the sensor chip was quickly transferred to the UV spectroirradiator for a photo-cross-linking reaction. Subsequently, the sensor chip was washed with DMF, methanol, and water for 15 min in turn, followed by blowing dry under nitrogen, and then assembled with Flowcell Cover.
The binding studies were performed with PBST running buffer (pH = 7.4, 0.1% Tween 20) at a constant flow rate of 0.5 µL/s in instrument. 50S Ribosome was diluted separately with PBST running buffer to 200 nM, 400 nM, 800 nM, 1600 nM and 3200 nM and injected consecutively for 600 s at associating stage, followed by running buffer for 360 s at each dissociating stage. […]

[2] = test system: S. aureus ATCC 29213; test: MIC/MBC by broth micro dilution; format: cell-based; settings: Staphylococcus aureus; for MIC: ATCC29213, 37 °C, 24 h; for MBC: ATCC29213, lowest concentration reducing viable counts by 99.9%
Protocol: (§1) All the synthesised 1,2,3-triazole linked pleuromutilin analogues were screened for in vitro antibacterial activities against methicillin-resistant S. aureus (ATCC 43300), S. aureus (ATCC 29213), and two clinical strains of S. aureus (AD3 and 144, isolated from Guangdong Province, China). The MICs and MBCs of the synthesised pleuromutilin derivatives along with pleuromutilin and tiamulin used as the reference antibacterial drugs, were determined by the broth micro dilution methods according to the Clinical and Laboratory Standards Institute (CLSI)[18].
(§2) The MIC of these novel pleuromutilin derivatives against methicillin-resistant S. aureus (ATCC 43300), S. aureus (ATCC 29213), S. aureus (AD3) and S. aureus (144) were determined by using pleuromutilin and tiamulin as positive control. MIC values were determined by the broth micro dilution methods in accordance with the Clinical and Laboratory Standards Institute (2012). Stock solutions of these compounds were dissolved in methanol to make a stock solution with a concentration of 1280 µg/mL. The working solutions (640 µg/mL) were obtained by diluting stock solutions in sterile Mueller-Hinton (MH) broth. The bacterial solution and solutions of these compounds with a final concentration of 0.016–32 µg/mL were distributed into 96-well plates, with a total volume of 200 µL. Three parallel experiments for each compound concentration. The plates were incubated at 37 °C for 24 h.
(§3) MBC values were determined according to CLSI (2003) and previously report with slightly modification[18]^,[28]^,[31]. After obtaining the MIC results, the 96-well plates were incubated at 37 °C for 24 h. 100 µL of the bacterial solution from the wells with no visible growth was inoculated on MH agar plates. The MH agar plates were incubated at 37 °C for colony count. The MBC was determined as the lowest concentration of compound, which reduces the viable counts for 99.9%.

[3] = test system: S. aureus 144; test: MIC/MBC by broth micro dilution; format: cell-based; settings: Staphylococcus aureus, S. aureus 144 (clinical strain); for MIC: 37 °C, 24 h; for MBC: lowest concentration reducing viable counts by 99.9%
Protocol: as §1, §2, §3

[4] = test system: S. aureus AD3; test: MIC/MBC by broth micro dilution; format: cell-based; settings: Staphylococcus aureus, S. aureus AD3 (clinical strain); for MIC: 37 °C, 24 h; for MBC: lowest concentration reducing viable counts by 99.9%
Protocol: as §1, §2, §3

[5] = test system: MRSA ATCC 43300; test: MIC/MBC by broth micro dilution; format: cell-based, methicillin-resistant S. aureus; settings: Staphylococcus aureus; for MIC: 37 °C, 24 h, read-out: MIC; for MBC: lowest concentration reducing viable counts by 99.9%
Protocol: as §1, §2, §3

Structure (SMILES) | pKd [1] | Ka (association rate constant) [1] | Kd (dissociation rate constant) [1] | MIC [2] | MIC [3] | MIC [4] | MIC [5] | MBC [2] | MBC [3] | MBC [4] | MBC [5]
C=CC1(C)CC(OC(=O)Cn2cc(CN3CCC(O)CC3)nn2)C2(C)C(C)CCC3(CCC(=O)C32)C(C)C1O (stereo not drawn) [Compound 83, 22-(2-(4-(4-Hydroxypiperidin-1-yl)methyl)-1H-1,2,3-triazol-1-yl)-22-deoxy pleuromutilin] |  |  |  | 16 µg/mL (≈ 29.5 µM) | 32 µg/mL (≈ 59 µM) | 16 µg/mL (≈ 29.5 µM) | 8 µg/mL (≈ 14.7 µM) | 32 µg/mL (≈ 59 µM) | 32 µg/mL (≈ 59 µM) | 32 µg/mL (≈ 59 µM) | 16 µg/mL (≈ 29.5 µM)
C=CC1(C)CC(OC(=O)Cn2cc(CN3CCCC(CO)C3)nn2)C2(C)C(C)CCC3(CCC(=O)C32)C(C)C1O (stereo not drawn) [Compound 84, 22-(2-(4-(3-(Hydroxymethyl)piperidin-1-yl)methyl)-1H-1,2,3-triazol-1-yl)-22-deoxy pleuromutilin] |  |  |  | 16 µg/mL (≈ 28.7 µM) | 32 µg/mL (≈ 57.5 µM) | 16 µg/mL (≈ 28.7 µM) | 8 µg/mL (≈ 14.4 µM) | 32 µg/mL (≈ 57.5 µM) | 32 µg/mL (≈ 57.5 µM) | 32 µg/mL (≈ 57.5 µM) | 16 µg/mL (≈ 28.7 µM)
C=CC1(C)CC(OC(=O)Cn2cc(CN3CCC(CCO)CC3)nn2)C2(C)C(C)CCC3(CCC(=O)C32)C(C)C1O (stereo not drawn) [Compound 85, 22-(2-(4-(4-(2-Hydroxyethyl)piperidin-1-yl)methyl)-1H-1,2,3-triazol-1-yl)-22-deoxy pleuromutilin] |  |  |  | 16 µg/mL (≈ 28 µM) | 16 µg/mL (≈ 28 µM) | 16 µg/mL (≈ 28 µM) | 8 µg/mL (≈ 14 µM) | 32 µg/mL (≈ 56.1 µM) | 32 µg/mL (≈ 56.1 µM) | 32 µg/mL (≈ 56.1 µM) | 8 µg/mL (≈ 14 µM)
C=C[C@]1(C)C[C@@H](OC(=O)CO)[C@]2(C)[C@H](C)CC[C@]3(CCC(=O)[C@H]32)[C@@H](C)[C@@H]1O [Pleuromutilin, pleuromutilin] |  |  |  | 4 µg/mL (≈ 10.6 µM) | 2 µg/mL (≈ 5.28 µM) | 2 µg/mL (≈ 5.28 µM) | 2 µg/mL (≈ 5.28 µM) | 8 µg/mL (≈ 21.1 µM) | 4 µg/mL (≈ 10.6 µM) | 4 µg/mL (≈ 10.6 µM) | 4 µg/mL (≈ 10.6 µM)
C=C[C@]1(C)C[C@@H](OC(=O)CSCCN(CC)CC)[C@]2(C)[C@H](C)CC[C@]3(CCC(=O)[C@H]32)[C@@H](C)[C@@H]1O [Tiamulin, tiamulin, reference compound] | 7.44 | 122 M⁻¹ s⁻¹ | 4.44e-06 s⁻¹ | 0.5 µg/mL (≈ 1.01 µM) | 1 µg/mL (≈ 2.03 µM) | 1 µg/mL (≈ 2.03 µM) | 0.5 µg/mL (≈ 1.01 µM) | 1 µg/mL (≈ 2.03 µM) | 2 µg/mL (≈ 4.05 µM) | 2 µg/mL (≈ 4.05 µM) | 1 µg/mL (≈ 2.03 µM)

Continued, in another order:

pKd [1] | Ka (association rate constant) [1] | Kd (dissociation rate constant) [1] | MIC [2] | MIC [3] | MIC [4] | MIC [5] | Structure (SMILES) | MBC [2] | MBC [3] | MBC [4] | MBC [5]
5.06 | 3800 M⁻¹ s⁻¹ | 0.0329 s⁻¹ | 2 µg/mL (≈ 3.24 µM) | 4 µg/mL (≈ 6.47 µM) | 2 µg/mL (≈ 3.24 µM) | 1 µg/mL (≈ 1.62 µM) | C=C[C@]1(C)C[C@@H](OC(=O)Cn2cc(CN3CCN(c4cccc(C)c4)CC3)nn2)[C@]2(C)[C@H](C)CC[C@]3(CCC(=O)[C@H]32)[C@@H](C)[C@@H]1O [Compound 51, 22-(2-(4-(4-(m-Tolyl)-piperazin-1-yl)-methyl)-1H-1,2,3-triazol-1-yl)-22-deoxy pleuromutilin] | 4 µg/mL (≈ 6.47 µM) | 8 µg/mL (≈ 12.9 µM) | 4 µg/mL (≈ 6.47 µM) | 2 µg/mL (≈ 3.24 µM)
4.29 |  | 0.00403 s⁻¹ | 4 µg/mL (≈ 6.43 µM) | 8 µg/mL (≈ 12.9 µM) | 4 µg/mL (≈ 6.43 µM) | 2 µg/mL (≈ 3.22 µM) | C=C[C@]1(C)C[C@@H](OC(=O)Cn2cc(CN3CCN(c4ccccc4F)CC3)nn2)[C@]2(C)[C@H](C)CC[C@]3(CCC(=O)[C@H]32)[C@@H](C)[C@@H]1O [Compound 53, 22-(2-(4-(4-(2-Fluorophenyl)-piperazin-1-yl)-methyl)-1H-1,2,3-triazol-1-yl)-22-deoxy pleuromutilin] | 8 µg/mL (≈ 12.9 µM) | 8 µg/mL (≈ 12.9 µM) | 8 µg/mL (≈ 12.9 µM) | 4 µg/mL (≈ 6.43 µM)
5.46 | 992 M⁻¹ s⁻¹ | 0.00345 s⁻¹ | 4 µg/mL (≈ 6.17 µM) | 4 µg/mL (≈ 6.17 µM) | 2 µg/mL (≈ 3.08 µM) | 2 µg/mL (≈ 3.08 µM) | C=C[C@]1(C)C[C@@H](OC(=O)Cn2cc(CN3CCN(c4cccc([N+](=O)[O-])c4)CC3)nn2)[C@]2(C)[C@H](C)CC[C@]3(CCC(=O)[C@H]32)[C@@H](C)[C@@H]1O [Compound 63, 22-(2-(4-(4-(3-Nitrophenyl)-piperazin-1-yl)-methyl)-1H-1,2,3-triazol-1-yl)-22-deoxy pleuromutilin] | 8 µg/mL (≈ 12.3 µM) | 16 µg/mL (≈ 24.7 µM) | 4 µg/mL (≈ 6.17 µM) | 2 µg/mL (≈ 3.08 µM)
